Structures can show the parent of a compound that is named as a salt. Where two headings read alike, the source gives them in different places.

This experiment can be described thus: 3H-Thymidine Incorporation Assay (24 hr drug, wash, another 48 hr; 72 hr assay). In kind it is cell-based. The note with it: for Factor (Resistance Factor = Ratio of dCK- on Wild-type CCRF-CEM): ratio of IC50 CEM/dCK- to IC50 CCRF-CEM, 24 h exposure.
Setting [1] is: NCI-H460, read-out: IC50 in μM (3H-TdR incorporation at 72 hr) H-460 24 h, H-460 human lung carcinoma, 24 h exposure to drug, wash, another 48 hr.
[2] abbreviates: CCRF-CEM, read-out: IC50 in μM (3H-TdR incorporation at 72 hr) CEM/dCK- 24 h, CEM/dCK- (CCRF-CEM deoxycytidine kinase-deficient), 24 h exposure to drug, wash, another 48 hr.

In the case of `CCC(C)(C)OC(C)OC[C@H]1OC[C@@H](n2ccc(N)nc2=O)O1` (mixture of isomers) [Compound 117, 4-AMINO-1-{2-[1-(1,1-DI- METHYL-PROPOXY)-ETH- OXYMETHYL]-[1,3]DI- OXOLAN-4-YL}-1H-PYRI- MIDIN-2-ONE], the “Factor (Resistance Factor = Ratio of dCK- on Wild-type CCRF-CEM)” value is given as 494.
For the molecule `CC(=O)OC[C@H]1OC[C@@H](n2ccc(N)nc2=O)O1` [Compound 27], for the setting “NCI-H460, read-out: IC50 in μM (3H-TdR incorporation at 72 hr) H-460 (72 h), H-460 human lung carcinoma, 72 h exposure”, the IC50 was determined as 0.0053 µM.
Consider `Nc1ccn([C@@H]2CO[C@H](COC3CCCCO3)O2)c(=O)n1` (stereo partly shown) [Compound 41, 4-AMINO-1-[2-(TETRA- HYDRO-PYRAN-2-YLOXY- METHYL)-[1,3]DI- OXOLAN-4-YL]-1H-PYRI- MIDIN-2-ONE], for which the “Factor (Resistance Factor = Ratio of dCK- on Wild-type CCRF-CEM)” value was determined as 5.
Same read-out and setting: as for `O=C(Nc1ccn([C@@H]2CO[C@H](COC(=O)Oc3ccccc3)O2)c(=O)n1)Oc1ccccc1` [Compound 43, CARBONIC ACID 4-(2-OXO-4-PHENOXY- CARBONYLAMINO-2H-PYRI- MIDIN-1-YL)-[1,3]DI- OXOLAN-2-YLMETH- YL ESTER PHENYL ESTER], the figure is 1,000,000; as for `O=C(Nc1ccn([C@@H]2CO[C@H](CO)O2)c(=O)n1)Oc1ccccc1` [Compound 44, [1-(2-HYDROXYMETHYL-[1,3]DI- OXOLAN-4-YL)-2-OX- O-1,2-DIHYDRO-PYRI- MIDIN-4-YL]-CARBAMIC ACID PHENYL ESTER], 1,300; as for `CCOC(=O)Nc1ccn([C@@H]2CO[C@H](CO)O2)c(=O)n1` [Compound 45, [1-(2-HYDROXYMETHYL-[1,3]DI- OXOLAN-4-YL)-2-OX- O-1,2-DIHYDRO-PYRI- MIDIN-4-YL]-CARBAMIC ACID ETHYL ESTER], 63.
In the case of `CCOC(=O)Nc1ccn([C@@H]2CO[C@H](COC(=O)OCC)O2)c(=O)n1` [Compound 47, CARBONIC ACID 4-(4-ETH- OXYCARBONYLAMINO-2-OX- O-2H-PYRIMIDIN-1-YL)-[1,3]DI- OXOLAN-2-YL- METHYL ESTER ETHYL ESTER], the “Factor (Resistance Factor = Ratio of dCK- on Wild-type CCRF-CEM)” value came out at 34.
Still for that read-out and setting: the result for `Nc1ccn([C@@H]2CO[C@H](COC(=O)Cc3ccccc3)O2)c(=O)n1` [Compound 52, (2S,4S)-2-PHENYL- ACETOXYMETHYL-4-CYTO- SIN-1′-YL-1,3-DI- OXOLANE] reads 400.
In the case of `Nc1ccn([C@@H]2CO[C@H](COCOCc3ccccc3)O2)c(=O)n1` [Compound 56, 4-AMINO-1-(2-BENZYLOXY- METHOXYMETHYL-[1,3]DI- OXOLAN-4-YL)-1H-PYRI- MIDIN-2-ONE], the IC50 (MCF7, read-out: IC50 in μM (3H-TdR incorporation at 72 hr) MCF-7 24 h, MCF-7 human breast carcinoma, 24 h exposure to drug, wash, another 48 hr) was 2 µM and the IC50 under setting [1] was 7 µM.
As for `COc1ccc(OC(=O)Nc2ccn([C@@H]3CO[C@H](COC(=O)Oc4ccc(OC)cc4)O3)c(=O)n2)cc1` [Compound 63, CARBONIC ACID 4-[4-(4-METH- OXY-PHENOXY- CARBONYLAMINO)-2-OX- O-2H-PYRIMIDIN-1-YL]-[1,3]DI- OXOLAN-2-YLMETHYL ESTER 4-METH- OXY-PHENYL ESTER], the “Factor (Resistance Factor = Ratio of dCK- on Wild-type CCRF-CEM)” value was 2,778.
As for `CCCCC(C)C(=O)OC[C@H]1OC[C@@H](n2ccc(/N=C/N(C)C)nc2=O)O1` (stereo partly drawn) [Compound 64, (2S,4S)-2-(2″-METHYL-HEXANO- ICOXYMETHYL)-4-(4′-NN-DI- METHYLAMINOMETHYLENE-CYTO- SIN-1′-YL)-1,3-DI- OXOLANE], the “Factor (Resistance Factor = Ratio of dCK- on Wild-type CCRF-CEM)” value is reported as 2,000.
Still for that read-out and setting: as for `CC(C)OC(=O)OCOC[C@H]1OC[C@@H](n2ccc(N)nc2=O)O1.O=C(O)C(F)(F)F.O=C(O)C(F)(F)F` [Compound 68, CARBONIC ACID 4-(4-A- MINO-2-OXO-2H-PYRI- MIDIN-1-YL)-[1,3]DI- OXOLAN-2-YL- METHOXYMETHYL ESTER ISOPROPYL ESTER TRIFLUOROACETIC ACID SALT], the figure is 3,333.
For the molecule `CC(C(=O)OC[C@H]1OC[C@@H](n2ccc(N)nc2=O)O1)c1ccccc1` (stereo partly drawn) [Compound 69, (2S,4S)-2-(2″-METHYL- PHENYLACETOXY)METH- YL-4-CYTOSIN-1′-YL-1,3-DI- OXOLANE], the IC50 under setting [1] was found to be 0.045 µM.
As to `N=C(OC[C@H]1OC[C@@H](n2ccc(N)nc2=O)O1)C(Cl)(Cl)Cl` [Compound 79, 2,2,2-TRICHLORO-ACETI- MIDIC ACID 4-(4-A- MINO-2-OXO-2H-PYRI- MIDIN-1-YL)-[1,3]DI- OXOLAN-2-YL- METHYL ESTER], the “Factor (Resistance Factor = Ratio of dCK- on Wild-type CCRF-CEM)” value is listed as 4,500. Besides, under setting [2], the IC50 is 63 µM.
As to `COC(=O)CCCC(=O)Nc1ccn([C@@H]2CO[C@H](CO)O2)c(=O)n1` [Compound 81, 4-[1-(2-HYDROXYMETHYL-[1,3]DI- OXOLAN-4-YL)-2-OX- O-1,2-DIHYDRO-PYRI- MIDIN-4-YL- CARBAMOYL]-BUTYRIC ACID METHYL ESTER], the “Factor (Resistance Factor = Ratio of dCK- on Wild-type CCRF-CEM)” value turned out to be 83.
Turning to `Nc1ccn([C@@H]2CO[C@H](COC(=O)CCCCCNCc3ccccc3)O2)c(=O)n1` [Compound 83, 6-Benzylamino-hexanoic acid 4-(4-amino-2-oxo-2H-pyri-midin-1-yl)-[1,3]di-oxolan-2-yl-methyl ester bis trifluoroacetate salt], the “Factor (Resistance Factor = Ratio of dCK- on Wild-type CCRF-CEM)” value (bis trifluoroacetate salt) is reported as 4,545.
For the molecule `Nc1ccn([C@@H]2CO[C@H](COC(=O)CCCCCNCc3ccccc3)O2)c(=O)n1` [Compound 84, 6-Benzylamino-hexanoic acid 4-(4-amino-2-oxo-2H-pyri-midin-1-yl)-[1,3]di-oxolan-2-ylmethyl ester], the “Factor (Resistance Factor = Ratio of dCK- on Wild-type CCRF-CEM)” value is 5,000. For the same molecule, the IC50 under setting [2] was found to be 60 µM.
`Nc1ccn([C@@H]2CO[C@H](CO[C@@H]3O[C@H](CO)[C@@H](O)[C@H]3O)O2)c(=O)n1.O=C(O)C(F)(F)F` [Compound 85, 4-AMINO-1-[2-(3,4-DI- HYDROXY-5-HYDROXY- METHYL-TETRA- HYDROFURAN-2-YLOXY- METHYL)-[1,3]DI- OXOLAN-4-YL]-1HPYIMI- DIN-2-ONE, TRIFLUOROACETIC ACID SALT]: the “Factor (Resistance Factor = Ratio of dCK- on Wild-type CCRF-CEM)” value is 38.
With `O=C(O)C(F)(F)F.O=c1nc(NC/C=C/c2ccccc2)ccn1[C@@H]1CO[C@H](CO)O1` [Compound 89, 1-(2-HYDROXYMETHYL-[1,3]DI- OXOLAN-4-YL)-4-(3-CIN- NAMYL)-1H-PYRI- MIDIN-2-ONE TRIFLUORO-ACETATE SALT], the “Factor (Resistance Factor = Ratio of dCK- on Wild-type CCRF-CEM)” value is reported as 40.
Take `Nc1ccn([C@@H]2CO[C@H](COC/C=C/c3ccccc3)O2)c(=O)n1.O=C(O)C(F)(F)F` [Compound 90, 4-AMINO-1-[2-(3-CIN- NAMYLOXYMETHYL)-[1,3]DI- OXOLAN-4-YL]-1H-PYRI- MIDIN-2-ONE TRIFLUOROACETATE SALT]: the “Factor (Resistance Factor = Ratio of dCK- on Wild-type CCRF-CEM)” value came to 1.5.
Still for that read-out and setting: the result for `CC(OC[C@H]1OC[C@@H](n2ccc(N)nc2=O)O1)OC1CCCCC1` (stereo partly shown) [Compound 92, 4-AMINO-1-[2-(1-CYCLO- HEXYLOXY-ETH- OXYMETHYL)-[1,3]DI- OXOLAN-4-YL]-1H-PYRI- MIDIN-2-ONE] reads 77.
In the case of `CCCCC(CC)C(=O)Nc1ccn([C@@H]2CO[C@H](CO)O2)c(=O)n1` (stereo partly shown) [Compound 99, 2-ETHYL-HEXANOIC ACID [1-(2-HYDROXYMETHYL-[1,3]DI- OXOLAN-4-YL)-2-OX- O-1,2-DIHYDRO-PYRI- MIDIN-4-YL]-AMIDE], the “Factor (Resistance Factor = Ratio of dCK- on Wild-type CCRF-CEM)” value was greater than 20.

The record behind these values is patent publication US20050256034A1, “Dioxolane analogs for improved inter-cellular delivery” (priority 2000, published 2005).
